{
  "source": "patent US20250213701A1",
  "about": "“MEDICAMENT FOR TREATING HUMAN TUMOR BASED ON ERF3A-TARGETING PROTEOLYSIS MECHANISM” (SUZHOU DEGEN BIO-MEDICAL CO., LTD., priority 2022, published 2025)",
  "assay_type_in_all_cases": "cell-based",
  "key": {"[1]": {"target": "T1, GSPT1 (Homo sapiens, UniProt P15170+Q96SW2)", "T1 construct": "The downregulation of SRD5A3 and GSPT1 (eRF3a) proteins in PC-3 and HepG2 cells by C59; endogenous in cells; host or cells: 22Rv1, PC-3, HepG2", "T1 sequence (P15170 1-637 isoform P15170-3)": "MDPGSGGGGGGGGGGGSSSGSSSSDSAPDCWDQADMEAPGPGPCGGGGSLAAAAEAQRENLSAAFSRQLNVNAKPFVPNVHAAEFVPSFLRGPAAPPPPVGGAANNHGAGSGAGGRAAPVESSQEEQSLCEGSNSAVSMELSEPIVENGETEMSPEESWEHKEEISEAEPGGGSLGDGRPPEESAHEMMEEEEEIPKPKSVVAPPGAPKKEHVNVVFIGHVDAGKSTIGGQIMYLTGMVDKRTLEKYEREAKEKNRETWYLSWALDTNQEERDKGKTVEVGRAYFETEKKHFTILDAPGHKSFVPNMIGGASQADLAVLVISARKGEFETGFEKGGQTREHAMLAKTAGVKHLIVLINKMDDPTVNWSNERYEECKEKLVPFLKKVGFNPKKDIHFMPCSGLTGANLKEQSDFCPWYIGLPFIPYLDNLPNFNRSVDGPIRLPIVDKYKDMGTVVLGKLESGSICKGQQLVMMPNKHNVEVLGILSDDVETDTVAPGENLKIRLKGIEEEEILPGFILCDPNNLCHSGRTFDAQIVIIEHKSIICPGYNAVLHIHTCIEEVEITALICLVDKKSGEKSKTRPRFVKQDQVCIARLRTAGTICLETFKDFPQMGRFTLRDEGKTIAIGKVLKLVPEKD", "T1 sequence (Q96SW2 whole entry)": "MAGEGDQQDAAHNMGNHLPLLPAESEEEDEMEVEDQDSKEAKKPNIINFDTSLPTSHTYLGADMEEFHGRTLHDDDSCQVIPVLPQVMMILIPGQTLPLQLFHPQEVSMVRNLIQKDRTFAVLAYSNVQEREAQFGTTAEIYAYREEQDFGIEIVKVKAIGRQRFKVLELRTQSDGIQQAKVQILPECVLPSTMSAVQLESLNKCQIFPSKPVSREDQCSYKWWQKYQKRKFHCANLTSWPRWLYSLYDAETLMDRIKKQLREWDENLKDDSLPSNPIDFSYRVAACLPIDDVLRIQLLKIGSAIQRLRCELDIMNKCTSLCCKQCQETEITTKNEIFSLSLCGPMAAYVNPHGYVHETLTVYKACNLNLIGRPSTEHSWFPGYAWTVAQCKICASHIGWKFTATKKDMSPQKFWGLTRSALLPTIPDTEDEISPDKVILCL", "T1 sequence (Q16531 whole entry partner)": "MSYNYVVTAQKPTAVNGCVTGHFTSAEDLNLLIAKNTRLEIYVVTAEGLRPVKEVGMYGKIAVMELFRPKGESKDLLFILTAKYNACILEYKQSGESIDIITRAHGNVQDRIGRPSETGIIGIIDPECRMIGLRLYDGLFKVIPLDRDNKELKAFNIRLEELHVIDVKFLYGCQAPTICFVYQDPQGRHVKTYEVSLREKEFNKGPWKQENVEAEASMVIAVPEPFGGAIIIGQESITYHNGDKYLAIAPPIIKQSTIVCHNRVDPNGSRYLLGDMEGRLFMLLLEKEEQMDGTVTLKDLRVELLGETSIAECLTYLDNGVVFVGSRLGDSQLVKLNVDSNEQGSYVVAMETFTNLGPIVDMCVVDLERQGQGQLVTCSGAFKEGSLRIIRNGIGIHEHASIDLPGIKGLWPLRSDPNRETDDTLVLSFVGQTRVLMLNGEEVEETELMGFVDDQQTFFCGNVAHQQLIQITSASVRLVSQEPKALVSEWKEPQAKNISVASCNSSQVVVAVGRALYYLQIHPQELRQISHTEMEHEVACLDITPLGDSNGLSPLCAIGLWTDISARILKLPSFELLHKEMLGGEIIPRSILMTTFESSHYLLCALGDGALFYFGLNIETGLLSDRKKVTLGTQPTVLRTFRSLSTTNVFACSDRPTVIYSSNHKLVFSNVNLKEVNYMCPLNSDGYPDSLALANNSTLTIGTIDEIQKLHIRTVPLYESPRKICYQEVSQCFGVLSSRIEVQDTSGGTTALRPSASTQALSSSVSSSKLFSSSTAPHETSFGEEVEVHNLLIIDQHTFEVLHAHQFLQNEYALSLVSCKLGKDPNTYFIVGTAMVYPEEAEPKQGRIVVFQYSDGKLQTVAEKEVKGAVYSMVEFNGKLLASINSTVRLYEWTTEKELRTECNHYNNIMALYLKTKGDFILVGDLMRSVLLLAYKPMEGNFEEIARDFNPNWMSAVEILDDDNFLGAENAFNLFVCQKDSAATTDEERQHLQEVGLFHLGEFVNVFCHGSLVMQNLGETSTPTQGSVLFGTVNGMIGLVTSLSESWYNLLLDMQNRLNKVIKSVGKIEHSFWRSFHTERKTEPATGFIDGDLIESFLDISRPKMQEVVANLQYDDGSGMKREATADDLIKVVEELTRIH", "test": "Western blot assay in 22Rv1 cells: GSPT1", "settings": "different concentrations at 24 h, and 3 nM at different time points (FIGS. 7 and 8)", "excerpt": "Example 84: Western Blot Assay of Compound C59 in 22Rv1, PC-3, and HepG2 Cells\n(1) Materials: 22Rv1, PC-3, and HepG2 cell, anti-SRD5A1 antibody (ab167606), anti-SRD5A2 antibody (ab124877), anti-SRD5A3 antibody (PA5-107029), anti-androgen receptor (AR) antibody (CST, No. 5153), anti-GSPT1 antibody (Abcam, ab234433), anti-GADPH antibody (CST, No. 5174), anti-c-Myc antibody (CST, No. 8583), anti-α-tublin antibody (CST, No. 2125), anti-rabbit IgG, HRP-linked antibody (CST, No. 7074), electrophoresis device and membrane transfer device (LIUYI, BEIJING; DYCZ-24DN)\nCell seeding: 22Rv1 (Cell Bank of the Chinese Academy of Sciences, TCHu100), PC-3 (Cell Bank of the Chinese Academy of Sciences, SCSP-532) and HepG2 cells (Cell Bank of the Chinese Academy of Sciences, TCHu72) were subcultured and trypsinized to prepare 6×10^5 cells/mL suspensions, seeded on 6-well plates (3 mL/well), and cultured overnight in a cell incubator at 5% CO2 and 37° C. […]\nProtein quantification: The protein was quantified using a BCA protein quantification kit. […]\nWestern immunoblot assay (or Western blot, WB): SDS-PAGE gel at a proper concentration was prepared according to the molecular weight of the target protein: for example, the concentration of the separation gel was 8% and the concentration of the stacking gel was 5%. The loading volume was adjusted according to the protein quantification results. […]"}, "[2]": {"tested_on": "HGC-27 cells", "test": "Anti-proliferative toxicity of C63 in tumor cell lines (CCK8): HGC-27", "settings": "Homo sapiens, 72 h, 3 days, read-out: Inhibition rate", "experimental": "(§1) Example 83: Detection of Anti-Proliferative Toxicity of C63 in Some Tumor Cell Lines\nHGC-27 cells (purchased from the Cell Bank of the Chinese Academy of Sciences, Cat. No. TCHu22) were subcultured in a culture medium (RPMI-1640 medium+1% penicillin-streptomycin dual-antibiotic solution++20% fetal bovine serum) in an incubator at 5% carbon dioxide and 37° C.\nHGC-27 cells were seeded at 3000 cells/well (90 μL) on a 96-well plate and cultured for 24 h.\n(§2) 10 mM compound stock solutions were prepared in DMSO.\n(§3) The compound stock solution was diluted with DMSO to give DMSO solutions 1-9 at concentrations of 0 μM, 2500 μM, 500 μM, 100 μM, 20 μM, 4 μM, 0.8 μM, 0.16 μM, and 0.032 μM.\n(§4) 2 μL of each of solutions 1-9 was added to 98 μL of the medium to give mixed solutions 11-19 of the compound and the medium.\n(§5) 10 μL of each of solutions 11-19 was added to the above cell seed solution to give a total volume of 100 μL (90 μL+10 μL).\n(§6) The concentrations of the compound in the wells were 0 μM, 5.0 μM, 1.0 μM, 0.2 μM, 0.04 μM, 0.008 μM, 0.0016 μM, 0.00032 μM, and 0.000064 μM. All concentrations were in triplicate.\n(§7) After the above-treated cells were cultured for 3 days, 10 μL of the CCK8 solution (DOJINDO, Cat. No. PF725) was added to each well. The plate was incubated in an incubator at 37° C. for 1-4 h and then detected on a microplate reader for the reading at 450 nm."}, "[3]": {"tested_on": "NCI-N87 cells", "test": "Anti-proliferative toxicity of C63 in tumor cell lines (CCK8): NCI-N87", "settings": "Homo sapiens, 72 h, 3 days, read-out: Inhibition rate", "experimental": "as §1\n(§8) NCI-N87 cells (purchased from the Cell Bank of the Chinese Academy of Sciences, Cat. No. TCHu130) were subcultured in a culture medium (RPMI-1640 medium+1% penicillin-streptomycin dual-antibiotic solution+10% fetal bovine serum) in an incubator at 5% carbon dioxide and 37° C.\nNCI-N87 cells were seeded at 8000 cells/well (90 μL) on a 96-well plate and cultured for 24 h.\nas §2, §3, §4, §5, §6, §7"}, "[4]": {"tested_on": "MCF-7 cells", "test": "Anti-proliferative toxicity of C63 in tumor cell lines (CCK8): MCF-7", "settings": "Homo sapiens, MCF7, 72 h, 3 days, read-out: Inhibition rate", "experimental": "as §1\nas §8, with “MCF-7” for “NCI-N87”, “SCSP-531)” for “TCHu130)”, “(MEM” for “(RPMI-1640”, “serum+0.01 mg/mL recombinant human insulin)” for “serum)”\nMCF-7 cells were seeded at 5000 cells/well (90 μL) on a 96-well plate and cultured for 24 h.\nas §2, §3, §4, §5, §6, §7"}},
  "data": [
    {"smiles": "C[C@]12C=CC(=O)N[C@@H]1CC[C@@H]1[C@@H]2CC[C@]2(C)[C@@H](C(=O)Nc3cccc(N[C@@H]4CCC[C@@H](Nc5cccc6c5C(=O)N(C5CCC(=O)NC5=O)C6=O)C4)c3)CC[C@@H]12", "note": "(stereo partly drawn) [C59, N-(3-(N—(N-(4-(2-(3-(2,6-dioxopiperidine))-isoindole-1,3-dione))-1R,3R-cyclohexanediamine))phenyl)-3-oxo-4-aza-5α-androst-1-ene-17β-carboxamide]", "values": [
      {"measurement": "downregulation of GSPT1 protein (Western blot)", "setting": "[1]", "value": "downregulation"}
    ]},
    {"smiles": "C[C@]12C=CC(=O)N[C@@H]1CC[C@@H]1[C@@H]2CC[C@]2(C)[C@@H](C(=O)Nc3cccc(N[C@@H]4CCC[C@@H](Nc5cccc6c5C(=O)N([C@H]5CCC(=O)NC5=O)C6=O)C4)c3)CC[C@@H]12", "note": "[C63, N-(3-(N—(N-(4-(2-(3S-(2,6-dioxopiperidine))-isoindole-1,3-dione))-1R,3R-cyclohexanediamine))phenyl)-3-oxo-4-aza-5α-androst-1-ene-17β-carboxamide]", "values": [
      {"measurement": "inhibition at 64 pM", "setting": "[2]; 0.000064 μM", "value": 7.74, "unit": "%"},
      {"measurement": "inhibition at 0.00032 µM", "setting": "[2]; 0.000320 μM", "value": 9.52, "unit": "%"},
      {"measurement": "inhibition at 0.0016 µM", "setting": "[2]; 0.001600 μM", "value": 80, "unit": "%"},
      {"measurement": "inhibition at 0.008 µM", "setting": "[2]; 0.008000 μM", "value": 94.2, "unit": "%"},
      {"measurement": "inhibition at 0.04 µM", "setting": "[2]; 0.040000 μM", "value": 97.1, "unit": "%"},
      {"measurement": "inhibition at 0.2 µM", "setting": "[2]; 0.200000 μM", "value": 98.3, "unit": "%"},
      {"measurement": "inhibition at 1 µM", "setting": "[2]; 1.000000 μM", "value": 98.2, "unit": "%"},
      {"measurement": "inhibition at 5 µM", "setting": "[2]; 5.000000 μM", "value": 97.7, "unit": "%"},
      {"measurement": "inhibition at 64 pM", "setting": "[3]; 0.000064 μM", "value": 7.79, "unit": "%"},
      {"measurement": "inhibition at 0.00032 µM", "setting": "[3]; 0.000320 μM", "value": 32.7, "unit": "%"},
      {"measurement": "inhibition at 0.0016 µM", "setting": "[3]; 0.001600 μM", "value": 61, "unit": "%"},
      {"measurement": "inhibition at 0.008 µM", "setting": "[3]; 0.008000 μM", "value": 66.7, "unit": "%"},
      {"measurement": "inhibition at 0.04 µM", "setting": "[3]; 0.040000 μM", "value": 64.1, "unit": "%"},
      {"measurement": "inhibition at 0.2 µM", "setting": "[3]; 0.200000 μM", "value": 62.5, "unit": "%"},
      {"measurement": "inhibition at 1 µM", "setting": "[3]; 1.000000 μM", "value": 64, "unit": "%"},
      {"measurement": "inhibition at 5 µM", "setting": "[3]; 5.000000 μM", "value": 65.2, "unit": "%"},
      {"measurement": "inhibition at 64 pM", "setting": "[4]; 0.000064 μM", "value": 6.61, "unit": "%"},
      {"measurement": "inhibition at 0.00032 µM", "setting": "[4]; 0.000320 μM", "value": 14.5, "unit": "%"},
      {"measurement": "inhibition at 0.0016 µM", "setting": "[4]; 0.001600 μM", "value": 36.8, "unit": "%"},
      {"measurement": "inhibition at 0.008 µM", "setting": "[4]; 0.008000 μM", "value": 46, "unit": "%"},
      {"measurement": "inhibition at 0.04 µM", "setting": "[4]; 0.040000 μM", "value": 50.2, "unit": "%"},
      {"measurement": "inhibition at 0.2 µM", "setting": "[4]; 0.200000 μM", "value": 54.9, "unit": "%"},
      {"measurement": "inhibition at 1 µM", "setting": "[4]; 1.000000 μM", "value": 57.6, "unit": "%"},
      {"measurement": "inhibition at 5 µM", "setting": "[4]; 5.000000 μM", "value": 61.4, "unit": "%"}
    ]}
  ]
}
